In patent publication US8410049B2, “Methods and kits for preventing hypoglycemia” (Cebix, priority 2009, dated 2013):

Tests used:
[1] = C-peptide plasma levels, time-resolved fluoroimmunoassay; type: in vivo, human; conditions: for Increase in pre-dosing morning C-peptide plasma level vs baseline: 4.5 months (visit 3)
Experimental: The sampling of C-peptide in plasma at visits 2 and 4 coincided with the clinical visit and the time between the most recent administration of the trial drug and sampling varied between patients. Thereby, the result of C-peptide concentrations in plasma was less suitable for pharmacokinetic evaluations, but the results contributed to the assessment of treatment compliance. C-peptide plasma levels were measured at baseline, and after 3 and 6 months of treatment. Analysis was performed by the Department of Clinical Chemistry Karolinska University Hospital, Solna using a time-resolved fluoroimmunoassay (AutoDelfia, Wallac Oy, Turku, Finland). […] The plasma levels of C-peptide attained in this study ranged from about 0.2 nM to a maximum of about 6 nM in the high dose group.

[2] = test system: type 1 diabetes patients with peripheral neuropathy; conditions: in vivo

CC(C)C[C@H](NC(=O)[C@H](C)NC(=O)[C@H](CC(C)C)NC(=O)[C@@H]1CCCN1C(=O)[C@H](CCC(N)=O)NC(=O)[C@H](CC(C)C)NC(=O)[C@H](CO)NC(=O)CNC(=O)[C@H](C)NC(=O)CNC(=O)[C@@H]1CCCN1C(=O)CNC(=O)CNC(=O)CNC(=O)[C@H](CC(C)C)NC(=O)[C@H](CCC(=O)O)NC(=O)[C@@H](NC(=O)[C@H](CCC(N)=O)NC(=O)CNC(=O)[C@@H](NC(=O)[C@H](CCC(N)=O)NC(=O)[C@H](CC(C)C)NC(=O)[C@H](CC(=O)O)NC(=O)[C@H](CCC(=O)O)NC(=O)[C@H](C)NC(=O)[C@@H](N)CCC(=O)O)C(C)C)C(C)C)C(=O)N[C@@H](CCC(=O)O)C(=O)NCC(=O)N[C@@H](CO)C(=O)N[C@@H](CC(C)C)C(=O)N[C@@H](CCC(N)=O)C(=O)O [C-peptide, Recombinant human C-peptide]
Increase in pre-dosing morning C-peptide plasma level vs baseline ([1]; High-dose C-peptide, n=4): 0.13 ± 0.083 nmol/L | Increase in pre-dosing morning C-peptide plasma level vs baseline ([1]; Low-dose C-peptide, n=8): 0.045 ± 0.092 nmol/L | Accumulation following repeated C-peptide dosing ([1]; dose ranges of the study, 4.5 months): likely no significant accumulation | level at time molar ([1]; human, plasma, sc, during treatment, maximum in the high dose group, read-out: Plasma levels of C-peptide attained): 0.2 to 6 nM | AEs of any severity: Abdominal pain [2]: 3 | AEs of any severity: Allergic urticaria [2]: 1 | AEs of any severity: Anemia [2]: 1 | AEs of any severity: Aptyalism [2]: 1 | AEs of any severity: Arterial disorder [2]: 1 | AEs of any severity: Arthralgia [2]: 3 | AEs of any severity: Arthritis [2]: 1 | AEs of any severity: Asthma [2]: 1 | AEs of any severity: Back pain [2]: 2 | AEs of any severity: Blister [2]: 2 | AEs of any severity: Bronchitis [2]: 1 | AEs of any severity: Burning sensation [2]: 1 | AEs of any severity: Candidiasis [2]: 2 | AEs of any severity: Cardiac arrhythmia [2]: 1 | AEs of any severity: Cardiac murmur [2]: 1 | AEs of any severity: Carpal tunnel syndrome [2]: 1 | AEs of any severity: Celiac disease [2]: 1 | AEs of any severity: Chest pain [2]: 2 | AEs of any severity: Cough [2]: 1 | AEs of any severity: Dacryocanaliculitis [2]: 1 | AEs of any severity: Depression [2]: 1 | AEs of any severity: Dermatitis allergic [2]: 1 | AEs of any severity: Dry skin [2]: 1 | AEs of any severity: Epicondylitis [2]: 1 | AEs of any severity: Epistaxis [2]: 1 | AEs of any severity: Exostosis [2]: 2 | AEs of any severity: Eye injury [2]: 1 | AEs of any severity: Eye operation [2]: 1 | AEs of any severity: Fatigue [2]: 2 | AEs of any severity: Feeling abnormal [2]: 3 | AEs of any severity: Fibroma [2]: 1 | AEs of any severity: Flatulence [2]: 1 | AEs of any severity: Food poisoning [2]: 1 | AEs of any severity: Gastritis [2]: 1 | AEs of any severity: Hematuria [2]: 1 | AEs of any severity: Hemorrhage [2]: 1 | AEs of any severity: Hepatic enzyme increase [2]: 2 | AEs of any severity: Hyperaesthesia [2]: 1 (1) | AEs of any severity: Hypercalcemia [2]: 1 | AEs of any severity: Hyperlipidemia [2]: 1 | AEs of any severity: Hypertension [2]: 1 | AEs of any severity: Hyperthermeasthesia [2]: 2 (2) | AEs of any severity: Hypoaesthesia [2]: 2 | AEs of any severity: Hypoglycemic coma [2]: 2 | AEs of any severity: Hypotension [2]: 1 | AEs of any severity: Injection site burning [2]: 1 (1) | AEs of any severity: Joint sprain ankle [2]: 1 | AEs of any severity: Knee injury [2]: 1 | AEs of any severity: Leucopenia [2]: 1 | AEs of any severity: Limb operation [2]: 1 | AEs of any severity: Lymph node enlargement [2]: 1 | AEs of any severity: Macular edema [2]: 1 | AEs of any severity: Menopausal disorder [2]: 1 | AEs of any severity: Menstration irregular [2]: 1 | AEs of any severity: Migraine [2]: 1 | AEs of any severity: Multiple sclerosis [2]: 1 | AEs of any severity: Muscle cramp [2]: 1 | AEs of any severity: Muscle spasm [2]: 1 | AEs of any severity: Muscular atrophy [2]: 1 | AEs of any severity: Musculoskeletal chest [2]: 1 | AEs of any severity: Nasopharyngitis [2]: 23 | AEs of any severity: Otitis [2]: 2 | AEs of any severity: Pain in neck [2]: 1 | AEs of any severity: Pain in shoulder [2]: 1 | AEs of any severity: Panic disorder [2]: 1 | AEs of any severity: Pharyngitis [2]: 2 | AEs of any severity: Pregnancy [2]: 2 | AEs of any severity: Pyrexia [2]: 3 | AEs of any severity: Reflux gastritis [2]: 2 | AEs of any severity: Restless legs syndrome [2]: 1 | AEs of any severity: Rheumarthritis [2]: 1 | AEs of any severity: Rib fracture/injury [2]: 2 | AEs of any severity: ST elevation (ECG) [2]: 1 | AEs of any severity: Scar [2]: 1 | AEs of any severity: Sciatica [2]: 1 | AEs of any severity: Season allergy [2]: 1 | AEs of any severity: Sensory loss [2]: 1 | AEs of any severity: Sepsis [2]: 1 | AEs of any severity: Sinusitis [2]: 2 | AEs of any severity: Skin infection [2]: 1 | AEs of any severity: Stress disorder [2]: 1 | AEs of any severity: Sweating increased [2]: 1 | AEs of any severity: Synovial disorder [2]: 1 | AEs of any severity: Tachycardia (stress) [2]: 1 | AEs of any severity: Tendinitis [2]: 1 | AEs of any severity: Tendinous contracture [2]: 1 | AEs of any severity: Tendosynovitis stenosans [2]: 1 | AEs of any severity: Tonsilitis [2]: 2 | AEs of any severity: Tooth extraction [2]: 1 | AEs of any severity: Tooth infection [2]: 2 | AEs of any severity: Tooth injury [2]: 1 | AEs of any severity: Torticollis [2]: 1 | AEs of any severity: Upper respiratory tract infection [2]: 1 | AEs of any severity: Vertigo [2]: 1 | AEs of any severity: Vision decreased [2]: 1 | AEs of any severity: Vitamin B12 deficiency [2]: 1 | AEs of any severity: Vitreous hemorrhage [2]: 1 | AEs of moderate intensity (M): Abdomnial pain [2]: M (1) | AEs of moderate intensity (M): Arthralgia [2]: M (1) | AEs of moderate intensity (M): Arthritis [2]: M (1) | AEs of moderate intensity (M): Arthropathy [2]: M (1) | AEs of moderate intensity (M): Back pain [2]: M (1) | AEs of moderate intensity (M): Bronchitis [2]: M (1) | AEs of moderate intensity (M): Carpal tunnel syndrome [2]: M (1) | AEs of moderate intensity (M): Celiac disease [2]: M (1) | AEs of moderate intensity (M): Dacryocanaliculitis [2]: M (1) | AEs of moderate intensity (M): Depression [2]: M (1) | AEs of moderate intensity (M): Dizziness [2]: M (1) | AEs of moderate intensity (M): Epicondylitis [2]: M (1) | AEs of moderate intensity (M): Fatigue [2]: M (1) | AEs of moderate intensity (M): Feeling abnormal [2]: M (3) | AEs of moderate intensity (M): Gastritis [2]: M (1) | AEs of moderate intensity (M): Gastroenteritis [2]: M (3) | AEs of moderate intensity (M): Hyperlipidemia [2]: M (1) | AEs of moderate intensity (M): Hypoglycemic coma [2]: M (1) | AEs of moderate intensity (M): Hypotension [2]: M (1) | AEs of moderate intensity (M): Knee injury [2]: M (1) | AEs of moderate intensity (M): Limb operation [2]: M (1) | AEs of moderate intensity (M): Migraine [2]: M (1) | AEs of moderate intensity (M): Muscle cramp [2]: M (1) | AEs of moderate intensity (M): Myalgia [2]: M (2) | AEs of moderate intensity (M): Nausea [2]: M (1) | AEs of moderate intensity (M): Otitis [2]: M (1) | AEs of moderate intensity (M): Pain in extremity [2]: M (2) | AEs of moderate intensity (M): Paraesthesia [2]: M (1) | AEs of moderate intensity (M): Pharyngitis [2]: M (1) | AEs of moderate intensity (M): Pyrexia [2]: M (1) | AEs of moderate intensity (M): Restless legs syndrome [2]: M (1) | AEs of moderate intensity (M): Rib fracture/injury [2]: M (1); S (1) | AEs of moderate intensity (M): ST elevation (ECG) [2]: M (1) | AEs of moderate intensity (M): Sciatica [2]: M (1) | AEs of moderate intensity (M): Stress disorder [2]: M (1) | AEs of moderate intensity (M): Tendinous [2]: M (1) | AEs of moderate intensity (M): Tonsillitis [2]: M (1) | AEs of moderate intensity (M): Vision decreased [2]: M (1) | AEs of moderate intensity (M): Vitreous hemorrhage [2]: M (1) | AEs of severe intensity (S): Diarrhea [2]: S (1) | AEs of severe intensity (S): Hepatic enzyme increase [2]: S (1) | AEs of severe intensity (S): Hyperglycemia [2]: S (1) | AEs of severe intensity (S): Hypoglycemia [2]: M (1); S (1) | AEs of severe intensity (S): Hypoglycemic coma [2]: S (2) | AEs of severe intensity (S): Pharyngitis [2]: S (1) | AEs of severe intensity (S): Pregnancy [2]: S (1) | AEs of severe intensity (S): Rib fracture/injury [2]: M (1); S (1) | AEs possibly related to study drug: Hepatic enzyme increase [2]: 1 | AEs possibly related to study drug: Hyperaesthesia [2]: 1 (1) | AEs possibly related to study drug: Hyperglycemia [2]: 1 (1) | AEs possibly related to study drug: Hyperthermeasthesia [2]: 2 (2) | AEs possibly related to study drug: Hypoglycemia [2]: 1 | AEs possibly related to study drug: Injection site burning [2]: 1 (1) | AEs possibly related to study drug: Pain in extremity [2]: 1 | Adverse drug reactions or significant changes in safety variables [2]: no adverse drug reactions | Number of AEs probably/possibly related to study drug: Hyperglycemia [2]: 1 (1) | Number of AEs probably/possibly related to study drug: Hypoglycemia [2]: 1 | Number of AEs: Blood glucose fluctuation [2]: 0 | Number of AEs: Hypoglycemic coma [2]: 2 | Number of AEs: Hypothyroidism [2]: 0 | Number of AEs: Increased appetite [2]: 0 | Occurrences of hypoglycemic coma [2]: 4 | Serious adverse events (SAEs) [2]: Two SAEs | Tolerability [2]: well tolerated | Local reactions ([2]; sc): No local reactions
